Measured values reported in US8642642B2, “Heterocyclic arylsulphones suitable for treating disorders that respond to modulation of the serotonin 5HT6 receptor” (Abbott Laboratories, priority 2006, dated 2014).

Experiments:
[1] = biological target: T1, human dopamine D3 receptors (Homo sapiens, UniProt P35462); assay: Dopamine D3 receptor binding ([125I]-iodosulpride); conditions: for Ki: membranes from HEK-293 cells, 0.1 nM [125I]-iodosulpride; for Ki(D2)/Ki(D3): ratio of receptor binding constants, D2L versus D3
T1 construct: expressed in transfected cells
T1 sequence (P35462 whole entry): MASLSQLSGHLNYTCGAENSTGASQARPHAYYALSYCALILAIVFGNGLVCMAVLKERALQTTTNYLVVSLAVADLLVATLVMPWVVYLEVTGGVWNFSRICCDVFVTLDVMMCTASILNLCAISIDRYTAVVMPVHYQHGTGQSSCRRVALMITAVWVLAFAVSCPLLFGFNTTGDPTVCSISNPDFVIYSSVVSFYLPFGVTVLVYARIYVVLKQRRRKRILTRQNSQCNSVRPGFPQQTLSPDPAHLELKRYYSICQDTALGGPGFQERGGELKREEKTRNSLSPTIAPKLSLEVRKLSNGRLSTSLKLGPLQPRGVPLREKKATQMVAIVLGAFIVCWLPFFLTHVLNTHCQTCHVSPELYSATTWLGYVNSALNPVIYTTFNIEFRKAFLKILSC
Protocol: (§1) The substance to be tested was either dissolved in methanol/Chremophor® (BASF-AG) or in dimethyl sulfoxide and then diluted with water to the desired concentration.
Each assay mixture was run in triplicate.
The incubation buffer contained 50 mM tris, 120 mM NaCl, 5 mM KCl, 2 mM CaCl2, 2 mM MgCl2 and 0.1% bovine serum albumin, 10 μM quinolone and 0.1% ascorbic acid (prepared fresh daily). The buffer was adjusted to pH 7.4 with HCl.
After having been incubated at 25° C. for 60 minutes, the assay mixtures were filtered through a Whatman GF/B glass fiber filter under vacuum using a cell collecting device. The filters were transferred to scintillation viols using a filter transfer system. After 4 ml of Ultima Gold® (Packard) have been added, the samples were shaken for one hour and the radioactivity was then counted in a Beta-Counter (Packard, Tricarb 2000 or 2200CA). The cpm values were converted into dpm using a standard quench series and the program belonging to the instrument.
The inhibition curves were analyzed by means of iterative nonlinear regression analysis using the Statistical Analysis System (SAS) which is similar to the “LIGAND” program described by Munson and Rodbard.

[2] = biological target: T2, human 5-HT6 receptor (Homo sapiens, UniProt P50406); assay: Human 5-HT6 receptor binding assay (3H-LSD displacement); conditions: membranes from HEK-293 cells, 2 nM 3H-LSD
T2 construct: expressed in transfected cells
T2 sequence (P50406 whole entry): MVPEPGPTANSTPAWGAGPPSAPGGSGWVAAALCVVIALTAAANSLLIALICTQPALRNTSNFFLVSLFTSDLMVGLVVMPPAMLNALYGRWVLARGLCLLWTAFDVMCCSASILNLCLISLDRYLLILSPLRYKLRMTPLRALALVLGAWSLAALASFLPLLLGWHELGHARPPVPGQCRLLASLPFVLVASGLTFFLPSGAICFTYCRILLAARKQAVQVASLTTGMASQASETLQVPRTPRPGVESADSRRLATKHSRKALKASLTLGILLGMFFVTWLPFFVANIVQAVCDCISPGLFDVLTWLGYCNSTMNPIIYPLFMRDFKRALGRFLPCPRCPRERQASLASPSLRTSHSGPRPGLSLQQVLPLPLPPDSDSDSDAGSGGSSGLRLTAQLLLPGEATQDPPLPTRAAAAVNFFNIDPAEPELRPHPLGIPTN
Protocol: as §1
The compounds were dissolved in a concentration of 10^−2 M or 10^−3 M in DMSO. Further dilutions were performed in incubation buffer.
The procedure for the binding assay was based on the method of Monsma et al. (1993) Mol Pharmacol 43: 320-327. The binding reaction was carried out in a total volume of 0.250 ml for 60 min at 37° C. Membranes from HEK-293 cells stably expressing the human 5-HT6 receptor were incubated with 2 nM ^3H-LSD in the presence or absence of various concentrations of test compound for 60 min at 37° C. Non-specific binding was defined with 100 μM Serotonin (5-HT). Assays were performed in duplicate. Bound and free radioligand was separated by filtration and bound radioactivity determined by liquid scintillation counting.
The specific ligand binding to the receptors was defined as the difference between the total binding and the nonspecific binding determined in the presence of an excess of unlabelled 5-HT. The results are expressed as a percent of control specific binding obtained in the presence of compound. The IC50 values (concentration causing a half-maximal inhibition of control specific binding) and Hill coefficients (nH) were determined by non-linear regression analysis of the competition curves using Hill equation curve fitting.
The inhibition constants (Ki) were calculated from the Cheng Prusoff equation (Ki=IC50/(1+(L/KD)), where L=concentration of radioligand in the assay, and KD=affinity of the radioligand for the receptor).

Compound | Ki [1] | Ki(D2)/Ki(D3) [1] | Ki [2]
CCCN1CC[C@@H](c2ccc(NS(=O)(=O)c3ccc(-c4csnn4)s3)cc2)C1.Cl [Example 75, 5-[1,2,3]Thiadiazol-4-yl-thiophene-2-sulfonic acid [4-((S)-1-propyl-pyrrolidin-3-yl)-phenyl]-amide hydrochloride] | 10 to 50 nM | + (between 10 and 50) | 10 to 50 nM
CCCN1CC[C@@H](c2ccc(NS(=O)(=O)c3cccc(-c4csc(C)n4)c3)cc2)C1 [Example 99, 3-(2-Methyl-thiazol-4-yl)-N-[4-((S)-1-propyl-pyrrolidin-3-yl)-phenyl]-benzenesulfonamide] | 50 to 150 nM | + (between 10 and 50) | 1 to 10 nM
CCCN1CC[C@@H](c2ccc(NS(=O)(=O)c3cccc(N4CCCC4)c3)cc2)C1 [Example 71, N-[4-((S)-1-Propyl-pyrrolidin-3-yl)-phenyl]-3-pyrrolidin-1-yl-benzenesulfonamide] | 10 to 50 nM | + (between 10 and 50) | 1 to 10 nM
CCCN1CC[C@@H](c2ccc(NS(=O)(=O)c3cc(F)cc(C(F)(F)F)c3)cc2)C1.Cl [Example 103, 3-Fluoro-N-[4-((S)-1-propyl-pyrrolidin-3-yl)-phenyl]-5-trifluoromethyl-benzenesulfonamide hydrochloride] | 50 to 150 nM | ++ (between 50 and 100) | 10 to 50 nM
3-Trifluoromethyl-N-[4-((S)-1-propyl-pyrrolidin-3-yl)-phenyl]-benzenesulfonamide [Example 4] | 10 to 50 nM | + (between 10 and 50) | 1 to 10 nM
CCCN1CC[C@@H](c2ccc(NS(=O)(=O)c3cc(Cl)c(Cl)s3)cc2)C1.Cl [Example 74, 4,5-Dichloro-thiophene-2-sulfonic acid [4-((S)-1-propyl-pyrrolidin-3-yl)-phenyl]-amide hydrochloride] | 10 to 50 nM | ++ (between 50 and 100) | 1 to 10 nM
CCCN1CC[C@@H](c2ccc(NS(=O)(=O)c3ccc(OC(F)(F)F)c(Br)c3)cc2)C1.Cl [Example 61, 3-Bromo-N-[4-((S)-1-propyl-pyrrolidin-3-yl)-phenyl]-4-trifluoromethoxy-benzenesulfonamide hydrochloride] | 1 to 10 nM | ++ (between 50 and 100) | 10 to 50 nM
CCCN1CC[C@@H](c2ccc(NS(=O)(=O)c3ccc(F)c(Br)c3F)cc2)C1.Cl [Example 86, 3-Bromo-2,4-difluoro-N-[4-((S)-1-propyl-pyrrolidin-3-yl)-phenyl]-benzenesulfonamide hydrochloride] | 1 to 10 nM | ++ (between 50 and 100) | 10 to 50 nM
CCCN1CC[C@@H](c2ccc(NS(=O)(=O)c3ccc(Cl)s3)cc2)C1 [Example 62, 5-Chloro-thiophene-2-sulfonic acid [4-((S)-1-propyl-pyrrolidin-3-yl)-phenyl]-amide] | 1 to 10 nM | ++++ (>150) | 1 to 10 nM
C=CCN1CC[C@@H](c2ccc(NS(=O)(=O)c3cccc(C(F)(F)F)c3)cc2)C1 [Example 100, N-[4-((S)-1-Allyl-pyrrolidin-3-yl)-phenyl]-3-trifluoromethyl-benzenesulfonamide] | 10 to 50 nM | +++ (between 100 and 150) | 1 to 10 nM
CCCN1CC[C@@H](c2ccc(NS(=O)(=O)c3ccc(F)c(C(F)(F)F)c3)cc2)C1 [Example 102, 4-Fluoro-N-[4-((S)-1-propyl-pyrrolidin-3-yl)-phenyl]-3-trifluoromethyl-benzenesulfonamide] | 10 to 50 nM | ++ (between 50 and 100) | 10 to 50 nM

Second part, the compound after the results:

Ki [1] | Ki(D2)/Ki(D3) [1] | Ki [2] | Compound
1 to 10 nM | +++ (between 100 and 150) | 1 to 10 nM | CCCN1CC[C@@H](c2ccc(NS(=O)(=O)c3ccc(C(F)(F)F)s3)cc2)C1.Cl [Example 76, 5-Trifluoromethyl-thiophene-2-sulfonic acid [4-((S)-1-propyl-pyrrolidin-3-yl)-phenyl]-amide hydrochloride]
1 to 10 nM | ++ (between 50 and 100) | 10 to 50 nM | CCCN1CC[C@@H](c2ccc(NS(=O)(=O)c3ccc(-n4cccn4)s3)cc2)C1.Cl [Example 73, 5-Pyrazol-1-yl-thiophene-2-sulfonic acid [4-((S)-1-propyl-pyrrolidin-3-yl)-phenyl]-amide hydrochloride]
1 to 10 nM | ++++ (>150) | 1 to 10 nM | CCCN1CC[C@@H](c2ccc(NS(=O)(=O)c3ccc(C)s3)cc2)C1.Cl [Example 90, 5-Methyl-thiophene-2-sulfonic acid [4-((S)-1-propyl-pyrrolidin-3-yl)-phenyl]-amide hydrochloride]
1 to 10 nM | +++ (between 100 and 150) | 1 to 10 nM | CCCN1CC[C@@H](c2ccc(NS(=O)(=O)c3ccc(Br)s3)cc2)C1.Cl [Example 59, 5-Bromo-thiophene-2-sulfonic acid [4-((S)-1-propyl-pyrrolidin-3-yl)-phenyl]-amide hydrochloride]
< 1 nM | +++ (between 100 and 150) | 10 to 50 nM | CCCN1CC[C@@H](c2ccc(NS(=O)(=O)c3ccc(-c4ccccn4)s3)cc2)C1.Cl [Example 66, 5-Pyridin-2-yl-thiophene-2-sulfonic acid [4-((S)-1-propyl-pyrrolidin-3-yl)-phenyl]-amide hydrochloride]
1 to 10 nM | ++ (between 50 and 100) | 1 to 10 nM | CCCN1CC[C@@H](c2ccc(NS(=O)(=O)c3cccc(Br)c3)cc2)C1 [Example 70, 3-Bromo-N-[4-((S)-1-propyl-pyrrolidin-3-yl)-phenyl]-benzenesulfonamide]
< 1 nM | – | 1 to 10 nM | CCCN1CC[C@@H](c2ccc(NS(=O)(=O)c3ccc(-c4csc(C)n4)s3)cc2)C1 [Example 78, 5-(2-Methyl-thiazol-4-yl)-thiophene-2-sulfonic acid [4-((S)-1-propyl-pyrrolidin-3-yl)-phenyl]-amide]
< 1 nM | + (between 10 and 50) | 10 to 50 nM | CCCc1ccc(S(=O)(=O)Nc2ccc([C@@H]3CCN(CCC)C3)cc2)s1 [Example 60, 5-Propyl-thiophene-2-sulfonic acid [4-((S)-1-propyl-pyrrolidin-3-yl)-phenyl]-amide]
